According to US20250382297A1, “INHIBITORS OF FGFR2 AND FGFR3 AND USES THEREOF” (Insilico Medicine IP Limited, priority 2022, published 2025):
Like-named read-outs stand apart in the source and are kept apart here.

Experiments:
[1] = target: FGFR1 (Homo sapiens (Human), UniProt P11362); experiment: FGFR biochemical assay (LanthaScreen TR-FRET kinase assay), FGFR1
Method: (§1) Convert Ratio values to percent inhibition values (Percent inhibition=(max−sample Ratio)/(max−min)*100) where “min” means the Ratio of no enzyme control and “max” means the Ratio of DMSO control. • Data are analyzed and curve fitting is performed by XLFit Excel add-in version 5.4.0.8. The IC50 calculation equation is: Y=Bottom+(Top-Bottom)/(1+ (IC50/X)^HillSlope.

[2] = target: FGFR3 (Homo sapiens (Human), UniProt P22607); experiment: FGFR biochemical assay (LanthaScreen TR-FRET kinase assay), FGFR3
Method: as §1

[3] = target: FGFR2 (Homo sapiens (Human), UniProt P21802); experiment: FGFR biochemical assay (LanthaScreen TR-FRET kinase assay), FGFR2
Method: as §1

[4] = read-out: FGFR2 IC50, * incubation at room temperature for 60 minutes before addition of substrate solution, ATP 22 μM, FGFR2 0.01 nM
[5] = read-out: FGFR1 IC50, * incubation at room temperature for 60 minutes before addition of substrate solution, ATP 28 μM, FGFR1 0.01 nM
[6] = read-out: FGFR3 IC50, * incubation at room temperature for 60 minutes before addition of substrate solution, ATP 35 μM, FGFR3 0.1 nM
[7] = read-out: FGFR2 IC50, incubation with enzyme at room temperature for 10 minutes before substrate, ATP 22 μM, FGFR2 0.01 nM
[8] = read-out: FGFR3 IC50, incubation with enzyme at room temperature for 10 minutes before substrate, ATP 35 μM, FGFR3 0.1 nM
[9] = read-out: FGFR1 IC50, incubation with enzyme at room temperature for 10 minutes before substrate, ATP 28 μM, FGFR1 0.01 nM

Sequence of FGFR3 (P22607 23-806): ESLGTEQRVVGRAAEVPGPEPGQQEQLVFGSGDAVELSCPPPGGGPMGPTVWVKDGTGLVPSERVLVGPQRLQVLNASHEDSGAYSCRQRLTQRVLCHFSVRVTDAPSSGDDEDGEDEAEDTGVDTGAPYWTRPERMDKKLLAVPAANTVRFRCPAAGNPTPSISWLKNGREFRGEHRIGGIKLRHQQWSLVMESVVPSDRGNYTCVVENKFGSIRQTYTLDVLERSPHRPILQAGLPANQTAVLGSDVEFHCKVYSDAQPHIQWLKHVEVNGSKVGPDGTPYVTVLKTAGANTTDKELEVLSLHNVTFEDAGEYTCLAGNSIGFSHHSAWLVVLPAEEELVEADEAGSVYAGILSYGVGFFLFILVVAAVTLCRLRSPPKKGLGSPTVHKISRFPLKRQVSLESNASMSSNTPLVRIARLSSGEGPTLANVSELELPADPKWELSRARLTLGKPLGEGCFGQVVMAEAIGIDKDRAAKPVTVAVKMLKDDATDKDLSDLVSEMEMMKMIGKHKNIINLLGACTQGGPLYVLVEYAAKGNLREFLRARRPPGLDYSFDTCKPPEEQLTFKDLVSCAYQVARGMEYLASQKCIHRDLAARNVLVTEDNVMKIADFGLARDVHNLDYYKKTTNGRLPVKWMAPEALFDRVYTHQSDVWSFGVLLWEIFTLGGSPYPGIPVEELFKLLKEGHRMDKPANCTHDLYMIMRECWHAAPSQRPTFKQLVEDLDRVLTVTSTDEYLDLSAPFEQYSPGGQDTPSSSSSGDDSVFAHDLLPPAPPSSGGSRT
Sequence of FGFR2 (P21802 22-821): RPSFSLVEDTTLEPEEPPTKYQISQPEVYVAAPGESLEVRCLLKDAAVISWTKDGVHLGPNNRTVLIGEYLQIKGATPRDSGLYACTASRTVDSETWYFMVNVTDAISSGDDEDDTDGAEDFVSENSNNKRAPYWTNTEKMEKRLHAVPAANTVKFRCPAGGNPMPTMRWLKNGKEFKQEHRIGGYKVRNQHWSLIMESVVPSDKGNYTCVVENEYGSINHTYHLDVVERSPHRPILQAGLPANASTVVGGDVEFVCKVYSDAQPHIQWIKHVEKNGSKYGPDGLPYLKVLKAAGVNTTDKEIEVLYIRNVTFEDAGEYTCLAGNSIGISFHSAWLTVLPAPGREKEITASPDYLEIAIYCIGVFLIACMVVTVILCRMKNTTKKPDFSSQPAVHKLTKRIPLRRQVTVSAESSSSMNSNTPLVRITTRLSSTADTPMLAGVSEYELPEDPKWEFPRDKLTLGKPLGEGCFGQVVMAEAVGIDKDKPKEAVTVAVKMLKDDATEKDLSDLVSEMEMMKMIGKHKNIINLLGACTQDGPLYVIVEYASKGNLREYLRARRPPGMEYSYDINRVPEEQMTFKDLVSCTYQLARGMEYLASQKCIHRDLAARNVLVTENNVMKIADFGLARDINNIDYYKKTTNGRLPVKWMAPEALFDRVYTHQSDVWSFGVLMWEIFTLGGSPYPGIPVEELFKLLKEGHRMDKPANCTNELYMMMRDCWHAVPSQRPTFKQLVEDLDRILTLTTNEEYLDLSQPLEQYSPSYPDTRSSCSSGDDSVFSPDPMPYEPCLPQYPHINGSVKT
Sequence of FGFR1 (P11362 22-822): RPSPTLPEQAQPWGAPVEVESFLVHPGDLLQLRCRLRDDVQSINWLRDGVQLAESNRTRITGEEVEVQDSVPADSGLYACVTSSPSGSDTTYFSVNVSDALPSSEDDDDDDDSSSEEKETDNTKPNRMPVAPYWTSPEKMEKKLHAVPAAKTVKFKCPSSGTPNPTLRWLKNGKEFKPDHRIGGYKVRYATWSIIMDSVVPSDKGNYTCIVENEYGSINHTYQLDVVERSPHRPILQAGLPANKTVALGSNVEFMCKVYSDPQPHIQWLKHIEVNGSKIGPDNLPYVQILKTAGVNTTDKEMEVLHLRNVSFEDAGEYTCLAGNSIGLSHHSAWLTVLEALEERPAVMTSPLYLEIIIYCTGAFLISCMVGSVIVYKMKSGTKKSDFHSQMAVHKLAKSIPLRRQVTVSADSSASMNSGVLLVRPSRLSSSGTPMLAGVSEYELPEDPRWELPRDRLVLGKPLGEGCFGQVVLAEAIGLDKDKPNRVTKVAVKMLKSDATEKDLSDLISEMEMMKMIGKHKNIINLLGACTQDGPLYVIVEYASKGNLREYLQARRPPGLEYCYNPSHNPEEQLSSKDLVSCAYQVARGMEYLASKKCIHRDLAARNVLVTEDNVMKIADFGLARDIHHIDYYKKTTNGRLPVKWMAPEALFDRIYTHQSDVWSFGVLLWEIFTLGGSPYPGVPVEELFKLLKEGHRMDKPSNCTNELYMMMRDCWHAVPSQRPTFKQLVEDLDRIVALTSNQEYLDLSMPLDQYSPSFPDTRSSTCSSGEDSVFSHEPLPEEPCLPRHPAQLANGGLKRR

Compound `C=C(F)C(=O)Nc1ccc(-c2c(-c3ccc(Oc4nccc(C)n4)c(F)c3)c(C(N)=O)c3cc(C4CC4)ncn23)cc1` [Example 105, 3-cyclopropyl-6-(3-fluoro-4-((4-methylpyrimidin-2-yl)oxy)phenyl)-7-(4-(2-fluoroacrylamido)phenyl)pyrrolo[1,2-c]pyrimidine-5-carboxamide] has an IC50 [1] of 10 to 100 nM, an IC50 [2] of 10 to 100 nM and an IC50 [3, 4] of less than 10 nM.

For `C=C(F)C(=O)Nc1ccc(-c2c(-c3ccc(Oc4nccc(C)n4)c(F)c3)c(C(N)=O)c3cncnn23)cc1` [Example 108, 6-(3-fluoro-4-((4-methylpyrimidin-2-yl)oxy)phenyl)-7-(4-(2-fluoroacrylamido)phenyl)pyrrolo[2,1-f][1,2,4]triazine-5-carboxamide], the IC50 [1, 5] was greater than 1000 nM, the IC50 [2] was 100 to 1000 nM and the IC50 [3] was 10 to 100 nM.

`C=C(F)C(=O)Nc1ccc(-c2c(-c3ccc(Oc4nccc(C)n4)c(F)c3)c(C(N)=O)c3cc(-c4cnn(C)c4)ncn23)c(F)c1` [Example 91, 6-(3-fluoro-4-((4-methylpyrimidin-2-yl)oxy)phenyl)-7-(2-fluoro-4-(2-fluoroacrylamido)phenyl)-3-(1-methyl-1H-pyrazol-4-yl)pyrrolo[1,2-c]pyrimidine-5-carboxamide] gave an IC50 [1] of 10 to 100 nM, an IC50 [2, 6] of less than 10 nM and an IC50 [3, 4] of less than 10 nM.

For `C=C(F)C(=O)Nc1ccc(-c2c(-c3ccc(Oc4nc(C)cc(C)n4)c(F)c3)c(C(N)=O)c3cnc(C)cn23)cc1` [Example 53, 7-(4-((4,6-dimethylpyrimidin-2-yl)oxy)-3-fluorophenyl)-6-(4-(2-fluoroacrylamido)phenyl)-3-methylpyrrolo[1,2-a]pyrazine-8-carboxamide], the IC50 [1, 5] was greater than 1000 nM, the IC50 [2] was 100 to 1000 nM and the IC50 [3] was 10 to 100 nM.

`C=C(F)C(=O)Nc1ccc(-c2c(-c3ccc(Oc4nccc(C)n4)c(F)c3)c(C(N)=O)c3cc(C)ncn23)cc1` [Example 85, 6-(3-fluoro-4-((4-methylpyrimidin-2-yl)oxy)phenyl)-7-(4-(2-fluoroacrylamido)phenyl)-3-methylpyrrolo[1,2-c]pyrimidine-5-carboxamide] was tested, and the IC50 [1] was 100 to 1000 nM, the IC50 [2] was 10 to 100 nM and the IC50 [3, 4] was less than 10 nM.

Work on `C=CC(=O)Nc1ccc(-c2c(-c3ccc(OC)cc3)c(C(N)=O)c3cnccn23)cc1` [Example 22, 6-(4-acrylamidophenyl)-7-(4-methoxyphenyl)pyrrolo[1,2-a]pyrazine-8-carboxamide] yielded an IC50 [1] of 100 to 1000 nM, an IC50 [2] of 100 to 1000 nM and an IC50 [3] of 10 to 100 nM.

`C=CC(=O)Nc1ccc(-c2c(-c3ccc(Oc4cccc(C)n4)cc3)c(C(N)=O)c3cnc(OC)cn23)cc1` [Example 17, 6-(4-acrylamidophenyl)-3-methoxy-7-(4-((6-methylpyridin-2-yl)oxy)phenyl)pyrrolo[1,2-a]pyrazine-8-carboxamide] gave an IC50 [1] of 10 to 100 nM, an IC50 [2] of 10 to 100 nM and an IC50 [3, 7] of less than 10 nM.

In the case of `C=CC(=O)Nc1ccc(-c2c(-c3ccc(Oc4nccc(C)n4)c(F)c3)c(C(N)=O)c3cnc(C)cn23)cn1` [Example 36, 6-(6-acrylamidopyridin-3-yl)-7-(3-fluoro-4-((4-methylpyrimidin-2-yl)oxy)phenyl)-3-methylpyrrolo[1,2-a]pyrazine-8-carboxamide], the IC50 [1] is reported as 10 to 100 nM, the IC50 [2, 8] is reported as less than 10 nM and the IC50 [3, 7] is reported as less than 10 nM.

Work on `C=C(F)C(=O)N1CCc2cc(-c3c(-c4ccc(Oc5nccc(C)n5)c(F)c4)c(C(N)=O)c4cnc(C)cn34)c(F)cc21` [Example 73, 6-(6-fluoro-1-(2-fluoroacryloyl)indolin-5-yl)-7-(3-fluoro-4-((4-methylpyrimidin-2-yl)oxy)phenyl)-3-methylpyrrolo[1,2-a]pyrazine-8-carboxamide] yielded an IC50 [1] of 10 to 100 nM, an IC50 [2, 6] of less than 10 nM and an IC50 [3, 4] of less than 10 nM.

Work on `C=CC(=O)Nc1ccc(-c2c(-c3ccc(Oc4nccc(C)n4)c(F)c3)c(C(N)=O)c3cnccn23)cc1` [Example 33, 6-(4-acrylamidophenyl)-7-(3-fluoro-4-((4-methylpyrimidin-2-yl)oxy)phenyl)pyrrolo[1,2-a]pyrazine-8-carboxamide] yielded an IC50 [1] of 10 to 100 nM, an IC50 [2] of 10 to 100 nM and an IC50 [3, 7] of less than 10 nM.

Work on `C=CC(=O)Nc1ccc(-c2c(-c3ccc(Oc4ccccn4)cc3)c(C(N)=O)c3cnccn23)cc1` [Example 26, 6-(4-acrylamidophenyl)-7-(4-(pyridin-2-yloxy)phenyl)pyrrolo[1,2-a]pyrazine-8-carboxamide] yielded an IC50 [1] of 100 to 1000 nM, an IC50 [2] of 10 to 100 nM and an IC50 [3, 7] of less than 10 nM.

Compound `C=CC(=O)Nc1ccc(-c2c(-c3ccc(Oc4cccc(C)n4)c(F)c3)c(C(N)=O)c3cnccn23)cc1` [Example 32, 6-(4-acrylamidophenyl)-7-(3-fluoro-4-((6-methylpyridin-2-yl)oxy)phenyl)pyrrolo[1,2-a]pyrazine-8-carboxamide] has an IC50 [1] of 10 to 100 nM, an IC50 [2, 8] of less than 10 nM and an IC50 [3, 7] of less than 10 nM.

With `Cc1cn2c(-c3ccc(NC(=O)/C=C/CN(C)C)nc3)c(-c3ccc(Oc4cccc(C)n4)cc3)c(C(N)=O)c2cn1` [Example 10, (E)-6-(6-(4-(dimethylamino)but-2-enamido)pyridin-3-yl)-3-methyl-7-(4-((6-methylpyridin-2-yl)oxy)phenyl)pyrrolo[1,2-a]pyrazine-8-carboxamide] the IC50 [1] was 10 to 100 nM, the IC50 [2] was 10 to 100 nM and the IC50 [3, 7] was less than 10 nM.

In the case of `C=CC(=O)Nc1ccc(-c2c(-c3ccc(Oc4nccc(C)n4)cc3)c(C(N)=O)c3cnc(C)cn23)cc1OC` [Example 38, 6-(4-acrylamido-3-methoxyphenyl)-3-methyl-7-(4-((4-methylpyrimidin-2-yl)oxy)phenyl)pyrrolo[1,2-a]pyrazine-8-carboxamide], the IC50 [1] is reported as 100 to 1000 nM, the IC50 [2] is reported as 10 to 100 nM and the IC50 [3] is reported as 10 to 100 nM.

Compound `C=C(F)C(=O)Nc1ccc(-c2c(-c3ccc(Oc4nccc(C)n4)c(F)c3)c(C(N)=O)c3ccc(C)nn23)c(C)c1` [Example 94, 6-(3-fluoro-4-((4-methylpyrimidin-2-yl)oxy)phenyl)-7-(4-(2-fluoroacrylamido)-2-methylphenyl)-2-methylpyrrolo[1,2-b]pyridazine-5-carboxamide] has an IC50 [1] of 10 to 100 nM, an IC50 [2] of 10 to 100 nM and an IC50 [3, 4] of less than 10 nM.

`C=CC(=O)N1CC2(CC=C(c3c(-c4ccc(Oc5nccc(C)n5)cc4)c(C(N)=O)c4cnc(C)cn34)CC2)C1` [Example 70, 6-(2-acryloyl-2-azaspiro[3.5]non-6-en-7-yl)-3-methyl-7-(4-((4-methylpyrimidin-2-yl)oxy)phenyl)pyrrolo[1,2-a]pyrazine-8-carboxamide] showed an IC50 [1] of 100 to 1000 nM, an IC50 [2] of 100 to 1000 nM and an IC50 [3] of 100 to 1000 nM.

`C=CC(=O)Nc1ccc(-c2c(-c3ccc(Oc4nccc(C)n4)c(F)c3)c(C(N)=O)c3cnc(CO)cn23)cc1` [Example 78, 6-(4-acrylamidophenyl)-7-(3-fluoro-4-((4-methylpyrimidin-2-yl)oxy)phenyl)-3-(hydroxymethyl)pyrrolo[1,2-a]pyrazine-8-carboxamide] gave an IC50 [1] of 100 to 1000 nM, an IC50 [2, 8] of less than 10 nM and an IC50 [3, 7] of less than 10 nM.

`C=C(F)C(=O)N1CCCc2cc(-c3c(-c4ccc(Oc5nccc(C)n5)c(F)c4)c(C(N)=O)c4cnc(C)cn34)c(F)cc21` [Example 98, 6-(7-fluoro-1-(2-fluoroacryloyl)-1,2,3,4-tetrahydroquinolin-6-yl)-7-(3-fluoro-4-((4-methylpyrimidin-2-yl)oxy)phenyl)-3-methylpyrrolo[1,2-a]pyrazine-8-carboxamide] showed an IC50 [1, 5] greater than 1000 nM, an IC50 [2] of 100 to 1000 nM and an IC50 [3] of 100 to 1000 nM.

Work on `C=CC(=O)Nc1ccc(-c2c(-c3ccc(S(=O)(=O)C4CC4)cc3)c(C(N)=O)c3cnccn23)cc1` [Example 27, 6-(4-acrylamidophenyl)-7-(4-(cyclopropylsulfonyl)phenyl)pyrrolo[1,2-a]pyrazine-8-carboxamide] yielded an IC50 [1, 9] greater than 1000 nM, an IC50 [2] of 100 to 1000 nM and an IC50 [3] of 100 to 1000 nM.

With `C=C(F)C(=O)Nc1ccc(-c2c(-c3ccc(Oc4nccc(C)n4)cc3)c(C(N)=O)c3cnc(NC(C)=O)cn23)cc1` [Example 83, 3-acetamido-6-(4-(2-fluoroacrylamido)phenyl)-7-(4-((4-methylpyrimidin-2-yl)oxy)phenyl)pyrrolo[1,2-a]pyrazine-8-carboxamide] the IC50 [1] was 100 to 1000 nM, the IC50 [2] was 10 to 100 nM and the IC50 [3, 4] was less than 10 nM.

`C=CC(=O)Nc1ccc(-c2c(-c3ccc(C(=O)N4CC5(CCC5)C4)cc3)c(C(N)=O)c3cnccn23)cc1` [Example 30, 7-(4-(2-azaspiro[3.3]heptane-2-carbonyl)phenyl)-6-(4-acrylamidophenyl)pyrrolo[1,2-a]pyrazine-8-carboxamide] gave an IC50 [1] of 100 to 1000 nM, an IC50 [2] of 100 to 1000 nM and an IC50 [3] of 10 to 100 nM.

With `C=CC(=O)Nc1ccc(-c2c(-c3ccc(Oc4nccc(C)n4)c(F)c3)c(C(N)=O)c3cnc(C)cn23)cc1` [Example 35, 6-(4-acrylamidophenyl)-7-(3-fluoro-4-((4-methylpyrimidin-2-yl)oxy)phenyl)-3-methylpyrrolo[1,2-a]pyrazine-8-carboxamide] the IC50 [1] was 10 to 100 nM, the IC50 [2, 8] was less than 10 nM and the IC50 [3, 7] was less than 10 nM.

In the case of `C=C(F)C(=O)N1CCc2cc(-c3c(-c4ccc(Oc5nccc(C)n5)c(F)c4)c(C(N)=O)c4ccc(C)nn34)ccc21` [Example 95, 6-(3-fluoro-4-((4-methylpyrimidin-2-yl)oxy)phenyl)-7-(1-(2-fluoroacryloyl)indolin-5-yl)-2-methylpyrrolo[1,2-b]pyridazine-5-carboxamide], the IC50 [1, 5] is reported as greater than 1000 nM, the IC50 [2] is reported as 100 to 1000 nM and the IC50 [3] is reported as 10 to 100 nM.

Compound `C=C(F)C(=O)Nc1ccc(-c2c(-c3ccc(Oc4cc(C)ccn4)cc3)c(C(N)=O)c3cnc(C)cn23)cc1` [Example 52] has an IC50 [1, 9] greater than 1000 nM, an IC50 [2, 8] greater than 1000 nM and an IC50 [3] of 100 to 1000 nM.
